According to the supplement of paper PMC10307832:

Key:
Experiment in all cases: relative viability (nuclei count vs DMSO), 5 days (fraction); higher = more cells survive
[1] = compound: CN[C@@H]1C[C@H]2O[C@@](C)([C@@H]1OC)n1c3ccccc3c3c4c(c5c6ccccc6n2c5c31)C(=O)NC4 [Staurosporine] + Cc1nc(NC(=O)N2CCC[C@H]2C(N)=O)sc1-c1ccnc(C(C)(C)C(F)(F)F)c1 [Alpelisib] (partner 2 µM)
How it was run: (§1)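 Values are medians from duplicate plates. Each reflects relative viability, defined as the nuclei count of treated wells over that of vehicle wells. Lung cancer cell lines in 1536-well plates were pin-tool dosed one day after seeding with one drug alone or with a fixed anchor-drug dose plus five library-drug doses (not always all listed) in √10 steps, then fixed, stained and imaged at 4× after 5 days.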

[2] = compound: O=c1[nH]cc(F)c(=O)[nH]1 [5-Fluorouracil] + CC(=O)c1c(C)c2cnc(Nc3ccc(N4CCNCC4)cn3)nc2n(C2CCCC2)c1=O [Palbociclib] (partner 0.5 µM)
How it was run: as §1

[3] = compound: CN[C@@H]1C[C@H]2O[C@@](C)([C@@H]1OC)n1c3ccccc3c3c4c(c5c6ccccc6n2c5c31)C(=O)NC4 [Staurosporine] + Nc1ncn([C@H]2C[C@H](O)[C@@H](CO)O2)c(=O)n1 [Decitabine] (partner 2 µM)
How it was run: as §1

[4] = compound: O=c1[nH]cc(F)c(=O)[nH]1 [5-Fluorouracil] + O=C(CCCCCCC(=O)Nc1ccccc1)NO [Vorinostat] (partner 1 µM)
How it was run: as §1

| Cell Line | relative viability ([1]; first compound 0.005 µM) | relative viability ([1]; first compound 0.01581 µM) | relative viability ([1]; first compound 0.05 µM) | relative viability ([1]; first compound 0.1581 µM) | relative viability ([1]; first compound 0.5 µM) | relative viability ([2]; first compound 0.02 µM) | relative viability ([2]; first compound 0.2 µM) | relative viability ([2]; first compound 0.6325 µM) | relative viability ([2]; first compound 2 µM) | relative viability ([3]; first compound 0.005 µM) | relative viability ([3]; first compound 0.01581 µM) | relative viability ([3]; first compound 0.05 µM) | relative viability ([3]; first compound 0.1581 µM) | relative viability ([3]; first compound 0.5 µM) | relative viability ([4]; first compound 0.02 µM) | relative viability ([4]; first compound 0.2 µM) | relative viability ([4]; first compound 0.6325 µM) | relative viability ([4]; first compound 2 µM) |
| --- | --- | --- | --- | --- | --- | --- | --- | --- | --- | --- | --- | --- | --- | --- | --- | --- | --- | --- |
| NCI-H1563 | 0.813 | 0.57 | 0.63 | 0.53 | 0.489 | – | – | – | – | – | – | – | – | – | – | – | – | – |
| COR-L 105 | 0.59 | 0.388 | 0.236 | 0.235 | 0.197 | 0.4 | 0.438 | 0.44 | 0.427 | 0.603 | 0.44 | 0.381 | 0.332 | 0.229 | 0.718 | 0.881 | 0.771 | 0.626 |
| NCI-H647 | 0.51 | 0.218 | 0.117 | 0.0645 | 0.0592 | 0.343 | 0.516 | 0.308 | 0.358 | 0.379 | 0.247 | 0.266 | 0.0707 | 0.062 | 0.432 | 0.593 | 0.48 | 0.187 |
| LU99A | 0.341 | 0.153 | 0.19 | 0.105 | 0.118 | 0.441 | 0.419 | 0.361 | 0.257 | 0.934 | 0.672 | 0.513 | 0.341 | 0.198 | 0.497 | 0.479 | 0.44 | 0.302 |
| NCI-H1703 | 0.219 | 0.167 | 0.142 | 0.139 | 0.102 | – | – | – | – | – | – | – | – | – | – | – | – | – |
